# Data as given in ChEMBL document CHEMBL4800727 (2021).
# Assays:
# [1] = target: Serine/threonine-protein kinase Chk1 (Homo sapiens) (UniProt O14757); assay: CHK1 checkpoint homolog (S. pombe) Millipore kinase panel; settings: Compound concentration 10.0 uM
# [2] = target: Macrophage colony-stimulating factor 1 receptor (Homo sapiens) (UniProt P07333); assay: colony stimulating factor 1 receptor Millipore kinase panel; settings: Compound concentration 10.0 uM
# [3] = target: Cyclin-dependent kinase 2/cyclin A (Homo sapiens) (UniProt P24941+P20248+P78396); assay: cyclin-dependent kinase 2 / clyclinA Millipore kinase panel; type: protein-complex assay; settings: Compound concentration 10.0 uM
# [4] = target: CDK9/cyclin T1 (Homo sapiens) (UniProt O60563+P50750); assay: cyclin-dependent kinase 9 / cyclinT1 Millipore kinase panel; type: protein-complex assay; settings: Compound concentration 10.0 uM
# [5] = target: Death-associated protein kinase 2 (Homo sapiens) (UniProt Q9UIK4); assay: death-associated protein kinase 2 Millipore kinase panel; settings: Compound concentration 10.0 uM
# [6] = target: Death-associated protein kinase 3 (Homo sapiens) (UniProt O43293); assay: death-associated protein kinase 3 Millipore kinase panel; settings: Compound concentration 10.0 uM
# [7] = target: Ephrin type-B receptor 3 (Homo sapiens) (UniProt P54753); assay: EPH receptor B3 Millipore kinase panel; settings: Compound concentration 10.0 uM
# [8] = target: Eukaryotic elongation factor 2 kinase (Homo sapiens) (UniProt O00418); assay: eukaryotic elongation factor-2 kinase Millipore kinase panel; settings: Compound concentration 10.0 uM
# [9] = target: Homeodomain-interacting protein kinase 3 (Homo sapiens) (UniProt Q9H422); assay: homeodomain interacting protein kinase 3 Millipore kinase panel; settings: Compound concentration 10.0 uM
# [10] = target: Interleukin-1 receptor-associated kinase 4 (Homo sapiens) (UniProt Q9NWZ3); assay: interleukin-1 receptor-associated kinase 4 Millipore kinase panel; settings: Compound concentration 10.0 uM
# [11] = target: Tyrosine-protein kinase Lck (Homo sapiens) (UniProt P06239); assay: lymphocyte-specific protein tyrosine kinase Millipore kinase panel; settings: Compound concentration 10.0 uM
# [12] = target: Serine/threonine-protein kinase MARK1 (Homo sapiens) (UniProt Q9P0L2); assay: MAP/microtubule affinity-regulating kinase 1 Millipore kinase panel; settings: Compound concentration 10.0 uM
# [13] = target: Mitogen-activated protein kinase 1 (Homo sapiens) (UniProt P28482); assay: mitogen-activated protein kinase 1 Millipore kinase panel; settings: Compound concentration 10.0 uM
# [14] = target: Mitogen-activated protein kinase 12 (Homo sapiens) (UniProt P53778); assay: mitogen-activated protein kinase 12 Millipore kinase panel; settings: Compound concentration 10.0 uM
# [15] = target: Mitogen-activated protein kinase 14 (Homo sapiens) (UniProt Q16539); assay: mitogen-activated protein kinase 14 Millipore kinase panel; settings: Compound concentration 10.0 uM
# [16] = target: Serine/threonine-protein kinase Nek11 (Homo sapiens) (UniProt Q8NG66); assay: NIMA -related kinase 11 Millipore kinase panel; settings: Compound concentration 10.0 uM
# [17] = target: NUAK family SNF1-like kinase 1 (Homo sapiens) (UniProt O60285); assay: NUAK family, SNF1-like kinase, 1 Millipore kinase panel; settings: Compound concentration 10.0 uM
# [18] = organism: Homo sapiens; assay: p21 protein -activated kinase 2 Millipore kinase panel; settings: Compound concentration 10.0 uM
# [19] = target: Phosphatidylinositol 4,5-bisphosphate 3-kinase catalytic subunit gamma isoform (Homo sapiens) (UniProt P48736); assay: phosphoinositide-3-kinase, catalytic, gamma polypeptide Millipore kinase panel; settings: Compound concentration 10.0 uM
# [20] = target: Serine/threonine-protein kinase PLK1 (Homo sapiens) (UniProt P53350); assay: polo-like kinase 1 Millipore kinase panel; settings: Compound concentration 10.0 uM
# [21] = organism: Homo sapiens; assay: protein kinase C, beta 2 Millipore kinase panel; settings: Compound concentration 10.0 uM
# [22] = target: Serine/threonine-protein kinase D2 (Homo sapiens) (UniProt Q9BZL6); assay: protein kinase D2 Millipore kinase panel; settings: Compound concentration 10.0 uM
# [23] = target: Focal adhesion kinase 1 (Homo sapiens) (UniProt Q05397); assay: PTK2 protein tyrosine kinase 2 Millipore kinase panel; settings: Compound concentration 10.0 uM
# Focal adhesion kinase 1 (Homo sapiens), sequence (Q05397 2-1052 limits assumed): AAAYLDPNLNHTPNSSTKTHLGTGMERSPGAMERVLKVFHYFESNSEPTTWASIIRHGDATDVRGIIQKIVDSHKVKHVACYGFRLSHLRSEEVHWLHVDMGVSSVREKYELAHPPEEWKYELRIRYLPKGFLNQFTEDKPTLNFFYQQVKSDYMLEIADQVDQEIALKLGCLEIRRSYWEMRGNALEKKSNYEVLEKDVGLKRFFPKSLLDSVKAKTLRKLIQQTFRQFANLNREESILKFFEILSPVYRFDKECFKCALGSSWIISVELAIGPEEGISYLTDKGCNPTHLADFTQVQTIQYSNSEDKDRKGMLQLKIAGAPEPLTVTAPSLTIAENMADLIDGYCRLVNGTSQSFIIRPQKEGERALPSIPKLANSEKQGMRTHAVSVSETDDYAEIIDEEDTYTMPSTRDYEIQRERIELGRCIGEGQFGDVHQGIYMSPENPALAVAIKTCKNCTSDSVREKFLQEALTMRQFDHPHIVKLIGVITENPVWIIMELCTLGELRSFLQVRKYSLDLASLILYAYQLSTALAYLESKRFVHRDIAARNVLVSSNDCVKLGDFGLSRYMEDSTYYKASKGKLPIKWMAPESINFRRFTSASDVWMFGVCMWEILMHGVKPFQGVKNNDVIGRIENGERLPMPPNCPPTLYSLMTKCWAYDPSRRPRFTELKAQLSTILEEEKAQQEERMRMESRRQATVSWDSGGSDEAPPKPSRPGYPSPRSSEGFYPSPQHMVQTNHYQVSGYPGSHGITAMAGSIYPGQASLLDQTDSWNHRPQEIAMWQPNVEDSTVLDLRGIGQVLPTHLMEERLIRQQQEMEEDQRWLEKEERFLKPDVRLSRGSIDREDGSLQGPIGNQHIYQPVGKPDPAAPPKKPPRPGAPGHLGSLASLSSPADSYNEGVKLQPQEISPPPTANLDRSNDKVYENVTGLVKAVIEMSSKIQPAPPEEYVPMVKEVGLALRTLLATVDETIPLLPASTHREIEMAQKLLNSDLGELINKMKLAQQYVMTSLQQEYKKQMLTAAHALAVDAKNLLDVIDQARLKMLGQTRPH
# [24] = target: Protein-tyrosine kinase 2-beta (Homo sapiens) (UniProt Q14289); assay: PTK2B protein tyrosine kinase 2 beta Millipore kinase panel; settings: Compound concentration 10.0 uM
# [25] = target: Protein-tyrosine kinase 6 (Homo sapiens) (UniProt Q13882); assay: PTK6 protein tyrosine kinase 6 Millipore kinase panel; settings: Compound concentration 10.0 uM
# Protein-tyrosine kinase 6 (Homo sapiens), sequence (Q13882 whole entry, looked up): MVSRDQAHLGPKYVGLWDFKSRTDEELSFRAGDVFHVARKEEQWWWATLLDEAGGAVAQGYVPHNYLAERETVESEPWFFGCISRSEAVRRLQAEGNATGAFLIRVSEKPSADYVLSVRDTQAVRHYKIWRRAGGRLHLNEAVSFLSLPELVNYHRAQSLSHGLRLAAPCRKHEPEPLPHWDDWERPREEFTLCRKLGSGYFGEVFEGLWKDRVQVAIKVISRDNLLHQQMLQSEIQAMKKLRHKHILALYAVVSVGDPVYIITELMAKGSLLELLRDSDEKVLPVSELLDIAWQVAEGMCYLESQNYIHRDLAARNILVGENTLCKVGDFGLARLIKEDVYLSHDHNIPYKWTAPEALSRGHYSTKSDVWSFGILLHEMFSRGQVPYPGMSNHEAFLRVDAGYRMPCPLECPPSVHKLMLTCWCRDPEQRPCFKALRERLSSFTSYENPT
# [26] = target: Serine/threonine-protein kinase 10 (Homo sapiens) (UniProt O94804); assay: serine/threonine kinase 10 Millipore kinase panel; settings: Compound concentration 10.0 uM
# [27] = target: Serine/threonine-protein kinase TBK1 (Homo sapiens) (UniProt Q9UHD2); assay: TANK-binding kinase 1 Millipore kinase panel; settings: Compound concentration 10.0 uM
# [28] = target: Tyrosine-protein kinase TXK (Homo sapiens) (UniProt P42681); assay: TXK tyrosine kinase Millipore kinase panel; settings: Compound concentration 10.0 uM
# [29] = target: Tyrosine-protein kinase receptor TYRO3 (Homo sapiens) (UniProt Q06418); assay: TYRO3 protein tyrosine kinase Millipore kinase panel; settings: Compound concentration 10.0 uM
# [30] = target: Serine/threonine-protein kinase ULK2 (Homo sapiens) (UniProt Q8IYT8); assay: unc-51-like kinase 2 Millipore kinase panel; settings: Compound concentration 10.0 uM
# Serine/threonine-protein kinase ULK2 (Homo sapiens), sequence (Q8IYT8 whole entry): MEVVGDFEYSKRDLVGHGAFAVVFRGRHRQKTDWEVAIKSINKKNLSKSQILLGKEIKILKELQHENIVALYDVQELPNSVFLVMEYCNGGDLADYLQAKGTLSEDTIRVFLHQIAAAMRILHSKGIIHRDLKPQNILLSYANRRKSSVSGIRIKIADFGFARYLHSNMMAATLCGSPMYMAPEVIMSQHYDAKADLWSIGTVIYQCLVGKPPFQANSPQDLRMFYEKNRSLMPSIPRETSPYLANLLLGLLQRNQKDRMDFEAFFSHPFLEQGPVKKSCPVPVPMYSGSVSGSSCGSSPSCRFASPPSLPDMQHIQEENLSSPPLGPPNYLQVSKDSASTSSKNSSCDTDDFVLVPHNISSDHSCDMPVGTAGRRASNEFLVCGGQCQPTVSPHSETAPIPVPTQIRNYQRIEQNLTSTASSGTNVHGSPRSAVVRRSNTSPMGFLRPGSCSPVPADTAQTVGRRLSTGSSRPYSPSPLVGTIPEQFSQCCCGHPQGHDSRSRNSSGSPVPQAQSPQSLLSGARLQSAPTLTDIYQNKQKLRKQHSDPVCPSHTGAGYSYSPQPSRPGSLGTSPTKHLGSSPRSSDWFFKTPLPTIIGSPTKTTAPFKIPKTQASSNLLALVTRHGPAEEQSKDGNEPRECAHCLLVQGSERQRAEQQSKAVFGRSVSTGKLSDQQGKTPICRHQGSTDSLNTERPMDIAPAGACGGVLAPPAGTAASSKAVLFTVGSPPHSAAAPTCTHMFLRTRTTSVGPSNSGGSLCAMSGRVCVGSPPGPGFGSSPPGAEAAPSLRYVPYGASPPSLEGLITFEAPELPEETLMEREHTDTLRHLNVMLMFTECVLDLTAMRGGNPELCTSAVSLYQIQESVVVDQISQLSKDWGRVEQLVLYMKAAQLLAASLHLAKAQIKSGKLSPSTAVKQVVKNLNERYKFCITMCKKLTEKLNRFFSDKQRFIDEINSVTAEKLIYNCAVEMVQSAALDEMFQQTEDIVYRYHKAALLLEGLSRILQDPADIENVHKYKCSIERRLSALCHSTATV
# [31] = target: RAF proto-oncogene serine/threonine-protein kinase (Homo sapiens) (UniProt P04049); assay: v-raf-1 murine leukemia viral oncogene homolog 1 Millipore kinase panel; settings: Compound concentration 10.0 uM
# [32] = target: Serine/threonine-protein kinase WNK2 (Homo sapiens) (UniProt Q9Y3S1); assay: WNK lysine deficient protein kinase 2 Millipore kinase panel; settings: Compound concentration 10.0 uM
# [33] = target: High affinity 3',5'-cyclic-AMP phosphodiesterase 7A (Homo sapiens, UniProt Q13946); assay: hPDE7A1 PDE scan
# [34] = target: High affinity cGMP-specific 3',5'-cyclic phosphodiesterase 9A (Homo sapiens, UniProt O76083); assay: hPDE9A PDE scan
# [35] = target: C-X-C chemokine receptor type 2 (Homo sapiens) (UniProt P25025); assay: hBCXCR2 Cerep panel; settings: Compound concentration 10.0 uM
# [36] = target: Cannabinoid receptor 1 (Homo sapiens) (UniProt P21554); assay: hCB1 Cerep panel; settings: Compound concentration 10.0 uM
# Cannabinoid receptor 1 (Homo sapiens), sequence (P21554 whole entry): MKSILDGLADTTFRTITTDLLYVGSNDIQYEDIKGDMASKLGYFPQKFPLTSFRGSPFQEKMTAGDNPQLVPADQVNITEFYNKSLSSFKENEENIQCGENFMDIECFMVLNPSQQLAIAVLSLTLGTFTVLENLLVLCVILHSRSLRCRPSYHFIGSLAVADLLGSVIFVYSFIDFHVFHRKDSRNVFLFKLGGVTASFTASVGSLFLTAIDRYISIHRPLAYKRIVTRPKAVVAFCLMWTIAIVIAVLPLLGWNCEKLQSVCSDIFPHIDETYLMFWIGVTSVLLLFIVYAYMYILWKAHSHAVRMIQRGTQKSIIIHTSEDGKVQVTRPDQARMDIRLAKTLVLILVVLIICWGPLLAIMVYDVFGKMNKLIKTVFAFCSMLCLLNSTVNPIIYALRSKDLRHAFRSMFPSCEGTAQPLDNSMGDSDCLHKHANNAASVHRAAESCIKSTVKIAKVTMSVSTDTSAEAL
# [37] = organism: Rattus norvegicus; assay: rCa channel Cerep panel; settings: Compound concentration 10.0 uM
# [38] = target: Adenosine receptor A1 (Homo sapiens) (UniProt P30542); assay: hA1 Cerep panel; settings: Compound concentration 10.0 uM
# [39] = target: Cannabinoid receptor 2 (Homo sapiens) (UniProt P34972); assay: hCB2 Cerep panel; settings: Compound concentration 10.0 uM
# [40] = target: Gastrin/cholecystokinin type B receptor (Homo sapiens) (UniProt P32239); assay: hCCK2 Cerep panel; settings: Compound concentration 10.0 uM
# [41] = target: T1, Sodium-dependent dopamine transporter (Homo sapiens, UniProt Q01959); assay: hDAT Cerep panel; settings: Compound concentration 10.0 uM
# T1 sequence (Q01959 whole entry): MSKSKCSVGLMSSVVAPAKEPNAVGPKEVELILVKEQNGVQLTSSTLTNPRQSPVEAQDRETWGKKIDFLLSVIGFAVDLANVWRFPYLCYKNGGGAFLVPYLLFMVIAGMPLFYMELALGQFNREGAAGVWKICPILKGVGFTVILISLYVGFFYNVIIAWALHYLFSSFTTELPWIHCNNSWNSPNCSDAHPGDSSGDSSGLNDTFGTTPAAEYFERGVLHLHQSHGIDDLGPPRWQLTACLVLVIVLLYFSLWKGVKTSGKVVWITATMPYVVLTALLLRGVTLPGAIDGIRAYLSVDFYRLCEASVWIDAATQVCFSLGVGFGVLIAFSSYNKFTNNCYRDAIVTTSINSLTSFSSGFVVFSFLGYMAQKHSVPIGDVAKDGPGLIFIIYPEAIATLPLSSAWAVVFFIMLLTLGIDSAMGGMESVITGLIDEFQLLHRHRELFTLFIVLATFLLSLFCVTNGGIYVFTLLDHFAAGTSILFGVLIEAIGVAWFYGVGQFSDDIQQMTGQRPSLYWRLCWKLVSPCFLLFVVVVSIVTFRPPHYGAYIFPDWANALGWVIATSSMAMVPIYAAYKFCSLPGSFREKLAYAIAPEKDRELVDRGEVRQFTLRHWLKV
# [42] = target: Muscarinic acetylcholine receptor M5 (Homo sapiens) (UniProt P08912); assay: hM5 Cerep panel; settings: Compound concentration 10.0 uM
# Muscarinic acetylcholine receptor M5 (Homo sapiens), sequence (P08912 whole entry): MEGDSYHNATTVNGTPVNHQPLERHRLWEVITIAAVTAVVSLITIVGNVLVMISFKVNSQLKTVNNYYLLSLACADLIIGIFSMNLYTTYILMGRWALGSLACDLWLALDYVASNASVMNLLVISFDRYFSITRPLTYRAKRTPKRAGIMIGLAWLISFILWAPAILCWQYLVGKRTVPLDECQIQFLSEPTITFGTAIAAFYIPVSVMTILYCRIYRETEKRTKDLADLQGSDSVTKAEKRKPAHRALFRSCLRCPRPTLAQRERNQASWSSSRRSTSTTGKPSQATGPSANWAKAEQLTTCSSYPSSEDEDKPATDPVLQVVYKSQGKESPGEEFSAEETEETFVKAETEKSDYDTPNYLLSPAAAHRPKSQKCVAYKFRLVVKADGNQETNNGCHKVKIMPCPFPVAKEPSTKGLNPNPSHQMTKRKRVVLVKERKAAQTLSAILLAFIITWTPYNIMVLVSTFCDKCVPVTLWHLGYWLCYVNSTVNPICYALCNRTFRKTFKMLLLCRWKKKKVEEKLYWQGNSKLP
# [43] = target: Delta-type opioid receptor (Homo sapiens) (UniProt P41143); assay: hOP1 Cerep panel; settings: Compound concentration 10.0 uM
# [44] = target: 5-hydroxytryptamine receptor 2B (Homo sapiens, UniProt P41595); assay: h5HT2B Cerep panel; settings: Compound concentration 10.0 uM
# [45] = target: 3',5'-cyclic-AMP phosphodiesterase 4D (Homo sapiens, UniProt Q08499); assay: hPDE4D2 Cerep panel; settings: Compound concentration 10.0 uM
# 3',5'-cyclic-AMP phosphodiesterase 4D, sequence (Q08499 whole entry): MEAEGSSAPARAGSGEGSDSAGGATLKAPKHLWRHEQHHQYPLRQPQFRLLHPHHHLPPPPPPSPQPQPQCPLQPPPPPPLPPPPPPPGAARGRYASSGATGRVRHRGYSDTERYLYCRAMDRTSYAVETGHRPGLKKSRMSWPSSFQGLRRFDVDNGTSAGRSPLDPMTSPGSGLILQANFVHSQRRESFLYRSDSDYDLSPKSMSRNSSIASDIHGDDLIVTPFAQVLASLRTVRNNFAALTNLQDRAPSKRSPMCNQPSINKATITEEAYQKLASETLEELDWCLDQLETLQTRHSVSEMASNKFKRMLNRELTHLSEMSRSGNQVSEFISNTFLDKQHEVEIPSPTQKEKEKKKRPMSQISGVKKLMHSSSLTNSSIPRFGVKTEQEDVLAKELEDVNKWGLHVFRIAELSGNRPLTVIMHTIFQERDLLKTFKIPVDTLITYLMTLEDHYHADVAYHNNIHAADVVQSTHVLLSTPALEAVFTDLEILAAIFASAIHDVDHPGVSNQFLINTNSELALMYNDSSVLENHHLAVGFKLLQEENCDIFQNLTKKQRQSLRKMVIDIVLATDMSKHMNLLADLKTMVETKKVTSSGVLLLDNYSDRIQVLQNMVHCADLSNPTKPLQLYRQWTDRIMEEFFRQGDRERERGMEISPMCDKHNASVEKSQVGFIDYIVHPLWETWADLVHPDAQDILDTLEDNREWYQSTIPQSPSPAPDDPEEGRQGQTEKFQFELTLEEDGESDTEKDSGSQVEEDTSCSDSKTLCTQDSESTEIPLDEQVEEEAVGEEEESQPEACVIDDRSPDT
# [46] = target: Prostaglandin G/H synthase 1 (Homo sapiens) (UniProt P23219); assay: hCOX1 Cerep panel; settings: Compound concentration 10.0 uM
# [47] = target: Prostaglandin G/H synthase 2 (Homo sapiens) (UniProt P35354); assay: hCOX2 Cerep panel; settings: Compound concentration 10.0 uM
# [48] = target: D(1B) dopamine receptor (Homo sapiens) (UniProt P21918); settings: Compound concentration 10.0 uM
# [49] = target: Muscarinic acetylcholine receptor M3 (Homo sapiens) (UniProt P20309); settings: Compound concentration 10.0 uM
# [50] = target: Muscarinic acetylcholine receptor M5 (Homo sapiens) (UniProt P08912); settings: Compound concentration 10.0 uM
# [51] = target: T1, Sodium-dependent dopamine transporter; assay: GPCRScan assay: inhibition of DAT; design: radioligand conc. used [nm] 3.6 – 16.0, parental cells stable HEK
# [52] = target: Beta-3 adrenergic receptor (Homo sapiens) (UniProt P13945); settings: Compound concentration 10.0 uM
structure (smiles),measurement,setting,value
COCCc1ccc(-c2c(C)nc3c(N4CCOCC4)ccnn23)cn1 [JNJ-42396302],inhibition,[1],-9%
same,inhibition,[2],4%
same,inhibition,[3],2%
same,inhibition,[4],-1%
same,inhibition,[5],-1%
same,inhibition,[6],-2%
same,inhibition,[7],3%
same,inhibition,[8],-2%
same,inhibition,[9],-6%
same,inhibition,[10],-1%
same,inhibition,[11],13%
same,inhibition,[12],-6%
same,inhibition,[13],1%
same,inhibition,[14],2%
same,inhibition,[15],-4%
same,inhibition,[16],-2%
same,inhibition,[17],7%
same,inhibition,[18],-3%
same,inhibition,[19],-4%
same,inhibition,[20],0%
same,inhibition,[21],3%
same,inhibition,[22],2%
same,inhibition,[23],-2%
same,inhibition,[24],-4%
same,inhibition,[25],-6%
same,inhibition,[26],0%
same,inhibition,[27],-3%
same,inhibition,[28],6%
same,inhibition,[29],1%
same,inhibition,[30],6%
same,inhibition,[31],10%
same,inhibition,[32],-1%
same,Ki,[33],23 µM
same,Ki,[34],33 µM
same,effect,[35],5.15%
same,effect,[36],4.05%
same,effect,[37],4.75%
same,effect,[38],11.3%
same,effect,[39],6.1%
same,effect,[40],-5.55%
same,effect,[41],4.5%
same,effect,[42],-0.55%
same,effect,[43],8.95%
same,effect,[44],2.4%
same,effect,[45],27.3%
same,effect,[46],13%
same,effect,[47],13.4%
same,inhibition,[48],25.3%
same,inhibition,[49],6.41%
same,inhibition,[50],-1.98%
c1ccc(C2CCN(c3cnc4c(N5CCOCC5)nccn34)CC2)cc1,Ki,[51]; read-out: Ki,4.13 µM
same,Ki,[51]; read-out: pKi (converted),4.17 µM
same,inhibition,[52],2.32%
